The target in test [1] is T1, KPC-2 (Klebsiella pneumoniae, UniProt Q9F663).
T1 construct: made in house; host or cells: E. coli BL21(DE3)
The experiment in a line: β-lactamase enzyme inhibition assay, KPC-2 (imipenem substrate). Format: biochemical. Conditions: Class A; imipenem substrate, 300 nm; read-out: KPC-2. The procedure: (§1) For SHV-5, Kpc-2, p99AmpC and OXA-1 β-lactamases, E. coli BL21(DE3) bacterial cells carrying expression plasmids (expressed as native untagged proteins) for the individual β-lactamases were grown in 1 L of Superbroth (Teknova Inc. Hollister, Calif.) supplemented with 100 μg/ml kanamycin selection and 1×5052 (0.5% glycerol, 0.05% glucose and 0.2% α-lactose) at 35° C. for 18-20 hours. Cells were harvested by centrifugation (4,000×g, 4° C., 20 min), resuspended in 50 ml of 10 mM HEPES pH 7.5 ( 1/20 of the initial volume). The cells were lysed by sonication (5 pulses of 45 seconds) at 45 W on ice. The lysates were clarified by centrifugation at 10,000×g for 40 minutes at 4° C. Samples were diluted 5-fold in 50 mM sodium acetate pH 5.0, stored overnight at 4° C., after which they were centrifuged at 10,000×g for 30 minutes to clarify, and filtered through 0.45 μm filters. The samples were loaded onto a 5 ml Capto S sepharose cation exchange column (GE Healthcare) pre-equilibrated with 50 mM sodium acetate pH 5.0. The column was washed with 5 column volumes of 50 mM sodium acetate pH 5.0 to wash out unbound protein and a linear gradient of NaCl (0 to 500 mM) was used to elute the protein (over 16 CV) from the column. Fractions were assayed for β-lactamase activity using Centa (Calbiochem, Gibbstown, N.J.) or Nitrocefin (EMD Millipore chemicals, Darmstadt, Germany) as a reporter β-lactamase substrate for activity in the isolated fractions. Active fractions were pooled, concentrated and further purified by gel filtration chromatography on a Superdex 75 prep grade gel filtration column (GE Healthcare, Piscataway, N.J.) pre-equilibrated in 50 mM Hepes pH 7.5, 150 mM NaCl. Active fractions were pooled concentrated, quantitated by BCA protein determination (Thermo Scientific, Rockford, Ill.), dialyzed into PBS and frozen at −80° C. in 20% glycerol until use.
(§2) An equal volume of diluted enzyme stock was added, and the plates were incubated at 37° C. for 15 min. Nitrocefin was used as substrate for p99 AmpC, VIM-2 and OXA-1 and dispensed into each well at a final concentration of 100 μM. Absorbance at 486 nm was immediately monitored for 10 min using a Biotek Powerwave XS2 microplate spectrophotometer using the GEN5 software package (Biotek Instruments, Winooski Vt.). In an analogous fashion, imipenem was used as substrate for Kpc-2 and Cefotaxime was used for SHV-5, while changes in absorbance upon hydrolysis of the β-lactam ring were monitored at 300 nm and 260 nm respectively in UV-transparent 96-well microtiter assay plates. Maximum rates of hydrolysis were compared to those in control wells (without inhibitors), and percentages of enzyme inhibition were calculated for each concentration of inhibitor. The concentration of inhibitor needed to reduce the initial rate of hydrolysis of substrate by 50% (IC50) was calculated as the residual activity of β-lactamase at 486 nm using GraFit version 7 kinetics software package (Erithacus Software, Surrey, UK).
(§3) Using the methodology described above, examples of the current invention were evaluated for their ability to inhibit β-lactamase enzymes from all four Ambler classifications (A through D). […] NT=Not tested.

The test system of test [2] is K. pneumoniae expressing the Class A carbapenemase KPC-2. The test can be described thus: Broth microdilution MIC assay with meropenem, K. pneumoniae KPC-2. Format: cell-based. The following applies: Fixed Mero (meropenem) 4 μg/mL; K. p. 156319 KPC-3. An excerpt: (§4) To determine the ability of test compounds to potentiate the inhibition of the growth of bacterial strains that produce beta-lactamase enzymes in the presence of a β-lactam antibiotic, classic cell based broth microdilution MIC assays were employed. Six bacteria strains producing beta-lactamase enzymes were used: E. coli expressing the Class A Extended Spectrum Beta-Lactamase (ESBL) CTX-M-15, E. cloacae expressing the Class C P99, K. pneumoniae expressing the Class A carbapenemase KPC-2, P. aeruginosa expressing the Class B carbapenemase VIM-2, K. pneumoniae expressing the class A carbapenemase KPC-2 and the class B carbapenemase VIM-4, and K. pneumoniae producing the Class D carbapenemase OXA-48. The assay was conducted in Cation Adjusted Mueller Hinton Broth (CAMHB, BD #212322, BD Diagnostic Systems, Sparks, Md.). Bacteria strains were grown for 3-5 hours in CAMBH broth. Test compounds (Examples 1-94) were added to a microtiter plate in 2-fold serial dilutions in CAMHB in a final concentration range of 16 μg/mL to 0.125 μg/ml. An overlay of CAMHB containing a Beta-lactam was added to the compounds at a final static concentration of 4 μg/ml. […] In addition to the titration of test compounds the MICs of a panel of control beta-lactams is also tested to ensure the strains are behaving consistently from test to test. Once the test compound and antibiotics are added the plates can be inoculated according to CLSI broth microdilution method. After inoculation the plates are incubated for 16-20 hours at 37° C. then the Minimal Inhibitory Concentration (MIC) of the test compound is determined visually.
(§5) Using the methodology described above, examples of the current invention were evaluated for their ability to inhibit the growth of β-lactamase-producing bacteria in the presence of a β-lactam antibiotic.
On the technique in general: In broth dilution the organism is exposed to a series of concentrations in liquid medium.

Test [3] concerns the target T2, AmpC (Enterobacter cloacae, UniProt P05364).
T2 construct: made in house; host or cells: E. coli BL21(DE3)
The test can be described thus: β-lactamase enzyme inhibition assay, p99 AmpC (nitrocefin substrate). Format: biochemical. The procedure: as §1, §2, §3

The test system of test [4] is K. pneumoniae expressing the class A carbapenemase KPC-2 and the class B carbapenemase VIM-4. The experiment in a line: Broth microdilution MIC assay with meropenem, K. pneumoniae KPC-2 and VIM-4. Format: cell-based. Conditions: Fixed Mero (meropenem) 4 μg/mL; K. p. A-1797 KPC-2 VIM-4.
Excerpt: as §4, §5

Test [5] concerns E. coli expressing the Class A Extended Spectrum Beta-Lactamase (ESBL) CTX-M-15. The test can be described thus: Broth microdilution MIC assay with ceftazidime, E. coli CTX-M-15. Format: cell-based. Conditions: Fixed CAZ (ceftazidime) 4 μg/mL; E. coli ESBL4 CTX-M-15.
Excerpt: as §4, §5

Test [6] concerns P. aeruginosa expressing the Class B carbapenemase VIM-2. The test can be described thus: Broth microdilution MIC assay with meropenem, P. aeruginosa VIM-2. Format: cell-based. The following applies: Fixed Mero (meropenem) 4 μg/mL; P. aerug. 2775 VIM-2.
Excerpt: as §4, §5

Test [7] addresses OXA-48 (UniProt Q6XEC0). The test can be described thus: β-lactamase enzyme inhibition assay, Class D oxacillinase. Format: biochemical. Conditions: read-out: OXA-48.
The subject of test [8] is K. pneumoniae producing the Class D carbapenemase OXA-48. The test can be described thus: Broth microdilution MIC assay with meropenem, K. pneumoniae OXA-48. Format: cell-based. Conditions: Fixed Mero (meropenem) 4 μg/mL; K. p. 11978 OXA-48.
Excerpt: as §4, §5

Test [9] concerns the target T3, VIM-2 (Escherichia coli, UniProt Q5U7L7).
T3 construct: made in house; host or cells: E. coli BL21(DE3)
The test can be described thus: β-lactamase enzyme inhibition assay, VIM-2 (nitrocefin substrate). Format: biochemical. Conditions: Class B; nitrocefin substrate, 486 nm; read-out: VIM-2. The procedure:
For Vim-2 metallo β-lactamase, the procedure was identical with the following exceptions, first the protein was not pH adjusted to pH 5 with 50 mM sodium acetate, second, the chromatography step was changed to a 5 ml Q sepharose anion exchange column pre-equilibrated with 50 mM Hepes pH 7.5, and elution of the protein was achieved by a linear gradient of NaCl (0-600 mM). Finally, the VIM-2 purification required a second run (3rd step) on the Q sepharose anion exchange column to achieve acceptable purity (>90%).
as §2, §3

Test [10] concerns the target T4, SHV-5 (Klebsiella pneumoniae, UniProt P0A3M1).
T4 construct: made in house; host or cells: E. coli BL21(DE3)
The test can be described thus: β-lactamase enzyme inhibition assay, SHV-5 (cefotaxime substrate). Format: biochemical. How it is done:
as §1, §2, §3

T2 sequence (P05364 21-381): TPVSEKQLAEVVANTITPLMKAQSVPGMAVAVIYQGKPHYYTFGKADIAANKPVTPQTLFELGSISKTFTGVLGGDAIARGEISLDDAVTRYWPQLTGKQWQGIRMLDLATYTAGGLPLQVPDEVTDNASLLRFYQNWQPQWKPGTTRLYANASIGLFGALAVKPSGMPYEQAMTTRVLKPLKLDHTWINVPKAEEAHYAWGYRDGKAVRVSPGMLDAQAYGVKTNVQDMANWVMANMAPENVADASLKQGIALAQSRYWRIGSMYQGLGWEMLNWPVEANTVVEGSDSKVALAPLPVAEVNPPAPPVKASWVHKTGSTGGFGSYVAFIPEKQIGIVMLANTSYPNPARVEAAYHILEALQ
T4 sequence (P0A3M1 22-286): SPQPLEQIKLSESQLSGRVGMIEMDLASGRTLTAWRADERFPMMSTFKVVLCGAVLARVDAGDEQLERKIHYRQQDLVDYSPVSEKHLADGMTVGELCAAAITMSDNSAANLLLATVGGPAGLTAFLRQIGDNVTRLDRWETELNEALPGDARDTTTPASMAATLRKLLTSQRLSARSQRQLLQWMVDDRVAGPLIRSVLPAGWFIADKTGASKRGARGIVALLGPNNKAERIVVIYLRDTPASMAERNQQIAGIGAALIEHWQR
T1 sequence (Q9F663 25-293, looked up): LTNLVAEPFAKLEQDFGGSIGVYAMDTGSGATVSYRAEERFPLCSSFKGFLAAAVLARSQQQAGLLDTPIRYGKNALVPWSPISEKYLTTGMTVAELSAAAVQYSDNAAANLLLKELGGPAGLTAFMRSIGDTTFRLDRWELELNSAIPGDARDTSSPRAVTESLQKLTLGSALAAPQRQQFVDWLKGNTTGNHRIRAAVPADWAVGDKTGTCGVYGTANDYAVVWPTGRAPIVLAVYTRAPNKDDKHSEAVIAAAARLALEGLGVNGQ

Regarding `NCCn1cc(CC(=O)N[C@H]2Cc3cccc(C(=O)O)c3OB2O)nn1` [Example 122, (R)-3-(2-(1-(2-aminoethyl)-1H-1,2,3-triazol-4-yl)acetamido)-2-hydroxy-3,4-dihydro-2H-benzo[e][1,2]oxaborinine-8-carboxylic acid], the IC50 in [1] was less than 100 nM; in test [3] it was less than 100 nM; in test [7], 100 to 1000 nM; in test [9], 100 to 1000 nM; in test [10] it was less than 100 nM. Moreover, the “MIC (μg/mL) of Exemplary Compounds in presence of fixed β-lactams: K. p. 156319 KPC-3” value in [2] is “B (B represents an MIC between 1 and 16 μg/mL inclusive)”. In addition, the “MIC (μg/mL) of Exemplary Compounds in presence of fixed β-lactams: K. p. A-1797 KPC-2 VIM-4” value in test [4] is “B (B represents an MIC between 1 and 16 μg/mL inclusive)”. Also, the “MIC (μg/mL) of Exemplary Compounds in presence of fixed β-lactams: E. coli ESBL4 CTX-M-15” value in test [5] is “C (C represents an MIC of <1 μg/mL)”. Further, in test [6], the “MIC (μg/mL) of Exemplary Compounds in presence of fixed β-lactams: P. aerug. 2775 VIM-2” value is given as “C (C represents an MIC of <1 μg/mL)”. Also, the “MIC (μg/mL) of Exemplary Compounds in presence of fixed β-lactams: K. p. 11978 OXA-48” value in [8] was “B (B represents an MIC between 1 and 16 μg/mL inclusive)”.
`NCC#Cc1c(CN)nnn1CC(=O)N[C@H]1Cc2cccc(C(=O)O)c2OB1O` [Example 109, (R)-3-(2-(4-(aminomethyl)-5-(3-aminoprop-1-yn-1-yl)-1H-1,2,3-triazol-1-yl)acetamido)-2-hydroxy-3,4-dihydro-2H-benzo[e][1,2]oxaborinine-8-carboxylic acid]: the IC50 was 100 to 1000 nM in [1]; 100 to 1000 nM in [3]; less than 100 nM in [7]; less than 100 nM in [9]; 100 to 1000 nM in [10]. Further, the “MIC (μg/mL) of Exemplary Compounds in presence of fixed β-lactams: K. p. 156319 KPC-3” value in test [2] was “B (B represents an MIC between 1 and 16 μg/mL inclusive)”. In addition, the “MIC (μg/mL) of Exemplary Compounds in presence of fixed β-lactams: K. p. A-1797 KPC-2 VIM-4” value in test [4] is recorded as “C (C represents an MIC of <1 μg/mL)”. Further, the “MIC (μg/mL) of Exemplary Compounds in presence of fixed β-lactams: E. coli ESBL4 CTX-M-15” value in [5] is listed as “C (C represents an MIC of <1 μg/mL)”. Further, the “MIC (μg/mL) of Exemplary Compounds in presence of fixed β-lactams: P. aerug. 2775 VIM-2” value in [6] was “C (C represents an MIC of <1 μg/mL)”. Besides, in test [8], the “MIC (μg/mL) of Exemplary Compounds in presence of fixed β-lactams: K. p. 11978 OXA-48” value is “B (B represents an MIC between 1 and 16 μg/mL inclusive)”.
